From patent publication US20050118576A1, “Novel method and assays for yeast-based drug screening” (priority 2000, published 2005)

Test system: W303-1B/Δydl120w::Kan^R yeast
Assay: Growth of mutant yeast in medium supplemented with Fe(II) or Cu(II) ions (OD620)
Type: cell-based, Saccharomyces cerevisiae
Details: increasing concentrations of the metal salt, SD+ medium, 19 hours at 30° C., FIG. 2A/2B
Experimental: For this experiment, W303-1B/Δydl120w::Kan^R and wild-type yeast precultures were grown in YPD medium for 16-24 hours at 30° C. until OD600 0.4-0.6. The precultures were diluted into SD+ medium (6.7 mg/ml yeast nitrogen base w/o amino acids, 2 mg/ml yeast extracts, 0.04 mg/ml adenine sulfate, 0.0625 mg/ml uracil, 0.04 mg/ml L-leucine, 0.03 mg/ml L-histidine-HCl, 0.03 mg/ml L-tryptophane in water) supplemented with variable concentrations of FeSO4 (dissolved in 0.1 N HCl) or CuSO4 (dissolved in water). Aliquots of 100 microliter of yeast suspension were dispensed into single wells of a 96-well microtiter plate. In the experiments with FeSO4 supplementation (FIG. 2A) culture medium for W303-1B/Δydl120w::Kan^R and wild-type yeast contained 4% w/v glucose and all wells were adjusted to the same final concentration of HCl and to DMSO (1% v/v) to prevent the solvent from interfering with the results.
Following 19 hours of culture at 30° C., the growth of yeast was determined by OD620 measurement using a microplate reader.

Row | Compound | growth of yeast as determined by OD620 measurement
1 | O=S(=O)([O-])[O-].[Cu+2] [CuSO4] | clearly inhibit the growth of the frataxin deficient yeast
2 | O=S(=O)([O-])[O-].[Fe+2] [FeSO4] | clearly inhibit the growth of the frataxin deficient yeast
